# Structures can show the parent of a compound that is named as a salt.
# Key:
# solubility = type: physicochemical
# [1] = antioxidant effect on fish-meal samples, oxygen uptake in Warburg apparatus and peroxide number; conditions: 40 g. fish meal + 0.04 g. antioxidant; for oxygen uptake (decrease of O2 pressure): 29° C., Warburg apparatus, control 19.5; for Peroxide Number: calculated for 1 g. of fish meal, after treatment with oxygen, control 7.83
# Protocol: The antioxidant effect of the new substances shown in foodstuffs and nutriments was investigated on fish-meal samples. […] In these experiments the oxygen uptake of fish-meal samples containing the various antioxidants was determined in a Warburg apparatus at 29° C., and the results were compared with those measured on samples containing no antioxidant. The peroxide number of samples treated with oxygen was also determined.
# [2] = 0.56 g./kg., longer period, animals; cited from earlier work
# rats [3] = conditions: 0.50 g./kg., 14 days; cited from earlier work
# [4] = tested on: encephalomalacia of poultries; conditions: compared with EMQ; cited from earlier work
# [5] = in vivo; cited from earlier work
# [6] = biological systems, foodstuff mixtures; cited from earlier work
# [7] = known antioxidant; cited from earlier work
# rats [8] = conditions: rat, in vivo
# From the text: (§1) Since the novel compounds are completely nontoxic, they can be used with great advantage in animal husbandry and in the food industry, as well as in therapy. On the basis of the investigations carried out on the acute and chronic toxicity of these new active agents, it can be stated that they are completely free of the disadvantages of the hitherto-known antioxidants mentioned above, first of all as regards their use in therapy.
# rats [9] = experiment: chronic toxicity of XAX, continuous administration to rats; type: in vivo, rat
# From the text: as §1
# serum cholesterol = serum cholesterol lowering in rabbits treated with cholesterol; type: in vivo, rabbit; conditions: 1 g. cholesterol per day, XAX 0.06 g./kg. daily, 70 or 105 days
# Protocol: Due to this fact they can also be used for the prophylaxis and treatment of arteriosclerosis. This effect of the new substances was investigated on rabbits treated with 1 g. of cholesterol per day. The animals were treated for 70 or 105 days with daily doses of 0.06 g./kg. of XAX. […] Using the hitherto-known antioxidants, this very favorable and important effect could not be reached at all.
# malignant tumors = experiment: appearance of malignant tumors in animals treated with minimum irradiation doses for a long period; type: in vivo; conditions: versus irradiated untreated animals
# From the text: Another important and unexpected property of the new substances is that they exert radiosensibilizing effect. […] On the basis of this property, the new compounds can also be used for the potentiating of the effect of irradiation therapy.
# [10] = tested on: liver cirrhosis caused by carbon tetrachloride; experiment: prophylactic activity against liver cirrhosis caused by carbon tetrachloride; type: in vivo
# [11] = 90 days, versus untreated animals
structure (smiles),measurement,setting,value
CC1=CC(C)(C)Nc2ccc(Cc3ccc4c(c3)C(C)=CC(C)(C)N4)cc21 [sulfuric acid salt of XAX],solubility in water and alcohol,solubility,soluble in water and alcohol
"CCOc1ccc2c(c1)C(C)=CC(C)(C)N2 [EMQ, 6-ethoxy-2,2,4-trimethyl-1,2-dihydroquinoline]",oxygen uptake (decrease of O2 pressure),[1],23.5 mmHg
same,Peroxide Number,[1],2.87
same,appetite,[2],may cause appetite lowering
same,gain in weight,[2],lowers the gain in weight
same,appetite,rats [3],the appetite of the animals was lowered
same,size of the liver,rats [3],an increase in size of the liver was observed
"CC1=CC(C)(C)Nc2ccc(Cc3ccc4c(c3)C(C)=CC(C)(C)N4)cc21 [Example 9, bis-(2,2,4-trimethyl-1,2-dihydroquinolyl-6)-methane-dihydrochloride]",solubility in water and alcohol,solubility,soluble in water and alcohol
Cc1cc(C(C)(C)C)c(O)c(C(C)(C)C)c1 [BHT],oxygen uptake (decrease of O2 pressure),[1],16.5 mmHg
same,Peroxide Number,[1],3.42
same,activity in encephalomalacia of poultries versus EMQ,[4],far lower activity than EMQ
same,teratogeneous effect (anophthalmia),[5],"the appearance of anophthalmia was observed, indicating that the compound exerts a teratogeneous effect"
"CC1=CC(C)(C)Nc2ccc(Cc3ccc4c(c3)C(C)=CC(C)(C)N4)cc21 [Example 8, bis-(2,2,4-trimethyl-1,2-dihydroquinolyl-6)-methane]",solubility in water and alcohol,solubility,well soluble in water and alcohol
"c1ccc(Nc2ccc(Nc3ccccc3)cc2)cc1 [DPPD, N,N'-diphenyl-p-phenylenediamine]",activity as antioxidant,[6],relatively low activity
same,cancer-inducing effect,[7],cancer-inducing effect
"CC1=CC(C)(C)Nc2ccc(Cc3ccc4c(c3)C(C)=CC(C)(C)N4)cc21 [XAX, bis-(2,2,4-trimethyl-1,2-dihydroquinolyl-6)-methane]",toxic symptoms,rats [8],no toxic symptoms
same,weight gain and blood picture,rats [9]; [11],Neither the weight gain nor the blood picture of the animals was harmfully affected
same,weight gain of some organs,rats [9]; [11],no excessive weight gain of some organs of the animals could be observed
same,damaging of tissues or cells,"rats [9]; daily 0.25 mg./kg., 3 weeks",no damaging of tissues or cells could be observed
same,oxygen uptake (decrease of O2 pressure),[1],11.5 mmHg
same,Peroxide Number,[1],1.54
same,cholesterol level of the blood,serum cholesterol,the cholesterol level of the blood decreased to a great extent
same,appearance of malignant tumors,malignant tumors,could be suppressed
same,prophylactic activity against liver cirrhosis,[10],great prophylactic activity

# Source: patent publication US4046765A, “Dihydroquinoline derivatives of antioxidant activity and a process for the preparation thereof” (priority 1971, dated 1977)
